Experimental data published in ChEMBL document CHEMBL1155531, “Structure guided design of 5-arylindazole glucocorticoid receptor agonists and antagonists” (J Med Chem, 2010).

What was measured:
[1] = Antiinflammatory activity in human primary synovial fibroblasts assessed as inhibition of IL1-induced IL6 release after 18 hrs by MSD technology; format: functional
[2] = Antiinflammatory activity in human primary synovial fibroblasts assessed as inhibition of IL1-induced IL8 release after 18 hrs by MSD technology; format: functional
[3] = Antiinflammatory activity in human primary synovial fibroblasts assessed as inhibition of IL1-induced MMP1 release after 18 hrs by MSD technology; format: functional
[4] = Toxicity in human skeletal muscle cells assessed as increase in glutamine synthase mRNA level after 18 hrs by PCR
Hepatocyte = assay: Toxicity in human hepatocytes assessed as increase in PEPCK mRNA level after 18 hrs by PCR; format: cell-based
[5] = Plasma concentration in mouse bearing mouse NIH-3T3 cells integrated with MMTV reporter gene at 10 mg/kg, po after 1 hr; format: ADME, organism-based, NIH3T3; design: dose 10 mg/kg, route oral
[6] = Relative plasma concentration in mouse assessed as ratio of plasma concentration in mouse at 10 mg/kg, po to IC50 for NF-kappaB transrepression activity in A549 cells expressing MMTV reporter gene; format: ADME, organism-based; design: dose 10 mg/kg, route oral; details: in vivo
[7] = Relative fraction unbound in mouse assessed as ratio of fraction unbound in mouse at 10 mg/kg, po to IC50 for NF-kappaB transrepression activity in A549 cells expressing MMTV reporter gene; format: ADME, organism-based; design: dose 10 mg/kg, route oral; details: in vivo
[8] = Plasma concentration in mouse bearing mouse NIH-3T3 cells integrated with MMTV reporter gene at 1 mg/kg, po after 1 hr; format: ADME, organism-based, NIH3T3; design: dose 1 mg/kg, route oral
[9] = Relative plasma concentration in mouse assessed as ratio of plasma concentration in mouse at 1 mg/kg, po to IC50 for NF-kappaB transrepression activity in A549 cells expressing MMTV reporter gene; format: ADME, organism-based; design: dose 1 mg/kg, route oral; details: in vivo
[10] = Relative fraction unbound in mouse assessed as ratio of fraction unbound in mouse at 1 mg/kg, po to IC50 for NF-kappaB transrepression activity in A549 cells expressing MMTV reporter gene; format: ADME, organism-based; design: dose 1 mg/kg, route oral; details: in vivo
[11] = Plasma concentration in mouse bearing mouse NIH-3T3 cells integrated with MMTV reporter gene at 0.1 mg/kg, po after 1 hr; format: ADME, organism-based, NIH3T3; design: dose 0.1 mg/kg, route oral
[12] = Relative plasma concentration in mouse assessed as ratio of plasma concentration in mouse at 0.1 mg/kg, po to IC50 for NF-kappaB transrepression activity in A549 cells expressing MMTV reporter gene; format: ADME, organism-based; design: dose 0.1 mg/kg, route oral; details: in vivo
[13] = Relative fraction unbound in mouse assessed as ratio of fraction unbound in mouse at 0.1 mg/kg, po to IC50 for NF-kappaB transrepression activity in A549 cells expressing MMTV reporter gene; format: ADME, organism-based; design: dose 0.1 mg/kg, route oral; details: in vivo
[14] = Plasma concentration in mouse bearing mouse NIH-3T3 cells integrated with MMTV reporter gene at 0.01 mg/kg, po after 1 hr; format: ADME, organism-based, NIH3T3; design: dose 0.01 mg/kg, route oral
[15] = Relative plasma concentration in mouse assessed as ratio of plasma concentration in mouse at 0.01 mg/kg, po to IC50 for NF-kappaB transrepression activity in A549 cells expressing MMTV reporter gene; format: ADME, organism-based; design: dose 0.01 mg/kg, route oral; details: in vivo
[16] = Relative fraction unbound in mouse assessed as ratio of fraction unbound in mouse at 0.01 mg/kg, po to IC50 for NF-kappaB transrepression activity in A549 cells expressing MMTV reporter gene; format: ADME, organism-based; design: dose 0.01 mg/kg, route oral; details: in vivo
Mus musculus [17] = assay: Inhibition of IL1-induced circulating IL6 release in mouse at 10 mg/kg, po; format: functional
Mus musculus [18] = assay: Inhibition of IL1-induced circulating IL6 release in mouse at 1 mg/kg, po; format: functional
Mus musculus [19] = assay: Inhibition of IL1-induced circulating IL6 release in mouse at 0.1 mg/kg, po; format: functional
Mus musculus [20] = assay: Inhibition of IL1-induced circulating IL6 release in mouse at 0.01 mg/kg, po; format: functional
Glucocorticoid receptor [21] = molecular target: T1, Glucocorticoid receptor (Homo sapiens, UniProt P04150); assay: Displacement of fluorescent-labeled Dexamethasone from GR by fluorescent polarization assay
T1 sequence (P04150 whole entry): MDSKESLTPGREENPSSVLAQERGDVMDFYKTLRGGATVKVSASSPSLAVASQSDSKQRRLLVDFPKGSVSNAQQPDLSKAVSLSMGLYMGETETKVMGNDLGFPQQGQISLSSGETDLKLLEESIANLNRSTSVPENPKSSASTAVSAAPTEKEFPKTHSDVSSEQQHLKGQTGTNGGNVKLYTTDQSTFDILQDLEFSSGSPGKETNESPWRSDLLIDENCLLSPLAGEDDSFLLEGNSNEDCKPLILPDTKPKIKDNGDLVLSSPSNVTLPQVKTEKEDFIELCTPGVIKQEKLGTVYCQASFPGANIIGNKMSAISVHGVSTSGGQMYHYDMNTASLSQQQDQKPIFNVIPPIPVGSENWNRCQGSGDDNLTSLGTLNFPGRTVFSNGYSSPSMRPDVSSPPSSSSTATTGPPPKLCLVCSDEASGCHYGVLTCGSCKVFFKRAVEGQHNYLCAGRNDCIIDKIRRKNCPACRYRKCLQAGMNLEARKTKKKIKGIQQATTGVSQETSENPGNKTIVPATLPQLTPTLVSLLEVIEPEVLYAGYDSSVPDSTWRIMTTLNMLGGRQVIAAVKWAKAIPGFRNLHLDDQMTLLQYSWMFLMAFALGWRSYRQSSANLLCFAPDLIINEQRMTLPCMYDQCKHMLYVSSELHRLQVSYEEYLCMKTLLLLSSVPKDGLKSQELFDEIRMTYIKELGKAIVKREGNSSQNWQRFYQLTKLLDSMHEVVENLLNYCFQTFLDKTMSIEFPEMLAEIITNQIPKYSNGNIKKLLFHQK

Glucocorticoid receptor [22] = molecular target: T1, Glucocorticoid receptor; assay: Activity at GR in human A549 cells by NF-kappaB transrepression assay; format: cell-based
Progesterone receptor = molecular target: T2, Progesterone receptor (Homo sapiens, UniProt P06401); assay: Binding affinity to PR
T2 sequence (P06401 whole entry): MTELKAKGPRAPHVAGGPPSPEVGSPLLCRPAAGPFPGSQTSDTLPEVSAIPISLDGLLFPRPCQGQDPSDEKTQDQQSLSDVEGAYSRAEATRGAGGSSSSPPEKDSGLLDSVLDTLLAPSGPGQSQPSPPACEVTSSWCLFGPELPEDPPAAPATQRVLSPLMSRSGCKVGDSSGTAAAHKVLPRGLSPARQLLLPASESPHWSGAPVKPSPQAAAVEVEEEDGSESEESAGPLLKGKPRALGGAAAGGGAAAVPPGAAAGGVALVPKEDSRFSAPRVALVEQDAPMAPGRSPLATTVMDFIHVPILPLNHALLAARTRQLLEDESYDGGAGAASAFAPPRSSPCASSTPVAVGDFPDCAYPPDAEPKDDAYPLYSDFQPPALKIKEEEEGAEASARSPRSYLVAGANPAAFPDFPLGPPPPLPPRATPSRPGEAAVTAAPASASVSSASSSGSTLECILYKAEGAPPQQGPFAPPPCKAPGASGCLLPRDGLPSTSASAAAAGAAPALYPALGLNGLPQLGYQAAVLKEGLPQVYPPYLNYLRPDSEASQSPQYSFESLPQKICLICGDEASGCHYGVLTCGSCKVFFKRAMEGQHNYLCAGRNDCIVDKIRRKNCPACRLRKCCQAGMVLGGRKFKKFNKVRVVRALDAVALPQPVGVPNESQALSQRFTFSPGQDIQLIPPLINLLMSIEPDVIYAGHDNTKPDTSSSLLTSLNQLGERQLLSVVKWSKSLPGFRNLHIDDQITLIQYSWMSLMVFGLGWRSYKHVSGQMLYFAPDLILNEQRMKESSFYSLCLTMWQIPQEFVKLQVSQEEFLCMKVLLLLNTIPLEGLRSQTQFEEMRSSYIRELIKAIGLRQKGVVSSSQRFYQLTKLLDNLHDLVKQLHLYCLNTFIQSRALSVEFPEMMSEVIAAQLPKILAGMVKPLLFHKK

Glucocorticoid receptor [23] = molecular target: T1, Glucocorticoid receptor; assay: Agonist activity at GR in human A549 cells transfected with luciferase gene linked to MMTV promoter assessed as luciferase transactivation activity after 24 hrs; format: functional, cell-based
Androgen receptor = molecular target: T3, Androgen receptor (Homo sapiens, UniProt P10275)
T3 sequence (P10275 whole entry): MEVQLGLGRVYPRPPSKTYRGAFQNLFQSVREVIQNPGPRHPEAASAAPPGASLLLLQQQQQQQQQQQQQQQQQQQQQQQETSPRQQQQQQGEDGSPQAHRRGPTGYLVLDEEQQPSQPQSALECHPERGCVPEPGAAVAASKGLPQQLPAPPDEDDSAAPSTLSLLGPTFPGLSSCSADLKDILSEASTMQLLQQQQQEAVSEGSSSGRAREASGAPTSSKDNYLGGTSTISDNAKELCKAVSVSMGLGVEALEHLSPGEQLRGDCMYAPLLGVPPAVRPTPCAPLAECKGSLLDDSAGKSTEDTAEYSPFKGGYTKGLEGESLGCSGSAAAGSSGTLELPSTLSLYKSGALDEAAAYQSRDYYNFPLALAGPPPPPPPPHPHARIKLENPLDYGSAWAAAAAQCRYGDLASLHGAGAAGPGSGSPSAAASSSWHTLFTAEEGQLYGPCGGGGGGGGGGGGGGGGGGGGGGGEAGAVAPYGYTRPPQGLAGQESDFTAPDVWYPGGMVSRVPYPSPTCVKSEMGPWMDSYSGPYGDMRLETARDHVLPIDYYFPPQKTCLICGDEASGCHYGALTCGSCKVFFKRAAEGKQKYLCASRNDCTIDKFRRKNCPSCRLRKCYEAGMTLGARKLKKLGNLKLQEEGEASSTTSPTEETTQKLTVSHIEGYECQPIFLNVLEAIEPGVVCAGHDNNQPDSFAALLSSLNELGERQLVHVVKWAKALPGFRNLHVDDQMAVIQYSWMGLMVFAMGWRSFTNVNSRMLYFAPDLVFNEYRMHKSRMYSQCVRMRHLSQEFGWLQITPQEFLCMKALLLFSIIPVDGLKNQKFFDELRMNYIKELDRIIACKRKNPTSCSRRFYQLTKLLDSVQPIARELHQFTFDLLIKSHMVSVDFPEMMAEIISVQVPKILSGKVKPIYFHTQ

## C[C@@H]1C[C@H]2[C@@H]3CCC4=CC(=O)C=C[C@]4(C)[C@@]3(F)[C@@H](O)C[C@]2(C)[C@@]1(O)C(=O)CO [DEXAMETHASONE]
[1]
  IC50: 0.631 nM
[2]
  IC50: 0.501 nM
[3]
  IC50: 0.316 nM
[4]
  Activity: Toxic
Hepatocyte
  Activity: Toxic
[5]
  concentration at 1 h: 17700 nM
[6]
  fold change (FC): 2944
[7]
  fold change (FC): 870
[8]
  concentration at 1 h: 1800 nM
[9]
  fold change (FC): 300
[10]
  fold change (FC): 86
[11]
  concentration at 1 h: 236 nM
[12]
  fold change (FC): 40
[13]
  fold change (FC): 8
[14]
  concentration at 1 h: 44 nM
[15]
  fold change (FC): 7
[16]
  fold change (FC): 0.4
Mus musculus [17]
  inhibition in vivo at 10 mg/kg: 83%
Mus musculus [18]
  inhibition in vivo at 1 mg/kg: 88%
Mus musculus [19]
  inhibition in vivo at 0.1 mg/kg: 67%
Mus musculus [20]
  inhibition in vivo at 0.01 mg/kg: 24%

## CCN(c1ccccc1)S(=O)(=O)c1ccc(-c2ccc3c(cnn3-c3ccc(F)cc3)c2)c(C(F)(F)F)c1
Glucocorticoid receptor [21]
  IC50: 15.8 nM
Glucocorticoid receptor [22]
  IC50: 126 nM
Progesterone receptor
  IC50: > 10000 nM
Glucocorticoid receptor [23]
  EC50: 200 nM
Androgen receptor
  IC50: > 10000 nM

## CN(c1ccccc1)S(=O)(=O)c1ccc(-c2ccc3c(cnn3-c3ccc(F)cc3)c2)c(C(F)(F)F)c1
Glucocorticoid receptor [21]
  IC50: 12.6 nM
Glucocorticoid receptor [22]
  IC50: 398 nM
Progesterone receptor
  IC50: 794 nM
Glucocorticoid receptor [23]
  EC50: 631 nM
Androgen receptor
  IC50: > 10000 nM

## COc1cccc(S(=O)(=O)Nc2ccc(-c3ccc4c(cnn4-c4ccc(F)cc4)c3)c(C(F)(F)F)c2)c1
Glucocorticoid receptor [21]
  IC50: 15.8 nM
Glucocorticoid receptor [22]
  IC50: 79.4 nM
Progesterone receptor
  IC50: > 10000 nM
Glucocorticoid receptor [23]
  EC50: 251 nM
Androgen receptor
  IC50: 3160 nM

## O=S(=O)(Nc1ccc(-c2ccc3c(cnn3-c3ccc(F)cc3)c2)c(C(F)(F)F)c1)c1cccc(C(F)(F)F)c1
Glucocorticoid receptor [21]
  IC50: 50.1 nM
Glucocorticoid receptor [22]
  IC50: 63.1 nM
Progesterone receptor
  IC50: > 10000 nM
Glucocorticoid receptor [23]
  EC50: 200 nM
Androgen receptor
  IC50: 3980 nM

## CCCCN(c1ccccc1)S(=O)(=O)c1ccc(-c2ccc3c(cnn3-c3ccc(F)cc3)c2)c(C(F)(F)F)c1
Glucocorticoid receptor [21]
  IC50: 25.1 nM
Glucocorticoid receptor [22]
  IC50: > 10000 nM
Progesterone receptor
  IC50: > 10000 nM
Glucocorticoid receptor [23]
  EC50: > 10000 nM
Androgen receptor
  IC50: > 10000 nM

## CC(C)N(c1ccccc1)S(=O)(=O)c1ccc(-c2ccc3c(cnn3-c3ccc(F)cc3)c2)c(C(F)(F)F)c1
Glucocorticoid receptor [21]
  IC50: 15.8 nM
Glucocorticoid receptor [22]
  IC50: 50.1 nM
Progesterone receptor
  IC50: > 2510 nM
Glucocorticoid receptor [23]
  EC50: 126 nM
Androgen receptor
  IC50: > 10000 nM
